Literature values in publication PMC9851200, “Multiparameter phenotypic screening for endogenous TFEB and TFE3 translocation identifies novel chemical series modulating lysosome function” (Autophagy, 2022).

What was measured:
Set-up in all cases: method as in original PKIS2 published data
[1] = target: T1, kinases (KINOMEscan panel) (Homo sapiens, UniProt Q8IW41); conditions: MAPKAPK5; Published KINOMEscan; ref original PKIS2 published data; cited from earlier work
T1 sequence (Q8IW41 1-473): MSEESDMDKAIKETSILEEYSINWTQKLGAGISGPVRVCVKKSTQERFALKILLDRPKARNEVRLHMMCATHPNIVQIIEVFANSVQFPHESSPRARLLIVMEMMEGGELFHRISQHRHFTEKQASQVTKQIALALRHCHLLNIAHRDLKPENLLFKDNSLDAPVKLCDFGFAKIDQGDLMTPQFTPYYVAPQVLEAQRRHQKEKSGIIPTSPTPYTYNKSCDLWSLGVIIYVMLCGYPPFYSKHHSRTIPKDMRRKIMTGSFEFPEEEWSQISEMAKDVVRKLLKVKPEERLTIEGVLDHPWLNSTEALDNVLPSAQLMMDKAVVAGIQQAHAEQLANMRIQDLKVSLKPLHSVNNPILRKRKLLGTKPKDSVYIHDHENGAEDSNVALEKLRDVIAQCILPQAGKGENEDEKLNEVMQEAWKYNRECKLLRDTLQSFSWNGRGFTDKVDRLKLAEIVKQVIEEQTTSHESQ

[2] = target: kinases (KINOMEscan panel) (Homo sapiens, UniProt Q15375); conditions: EPHA7; Published KINOMEscan; ref original PKIS2 published data; cited from earlier work
[3] = target: kinases (KINOMEscan panel) (Homo sapiens, UniProt P49759); conditions: kinase CLK1; Published KINOMEscan; ref original PKIS2 published data; cited from earlier work
[4] = target: T2, kinases (KINOMEscan panel) (Homo sapiens, UniProt Q15835); conditions: Published KINOMEscan; ref original PKIS2 published data; cited from earlier work
T2 sequence (Q15835 1-563): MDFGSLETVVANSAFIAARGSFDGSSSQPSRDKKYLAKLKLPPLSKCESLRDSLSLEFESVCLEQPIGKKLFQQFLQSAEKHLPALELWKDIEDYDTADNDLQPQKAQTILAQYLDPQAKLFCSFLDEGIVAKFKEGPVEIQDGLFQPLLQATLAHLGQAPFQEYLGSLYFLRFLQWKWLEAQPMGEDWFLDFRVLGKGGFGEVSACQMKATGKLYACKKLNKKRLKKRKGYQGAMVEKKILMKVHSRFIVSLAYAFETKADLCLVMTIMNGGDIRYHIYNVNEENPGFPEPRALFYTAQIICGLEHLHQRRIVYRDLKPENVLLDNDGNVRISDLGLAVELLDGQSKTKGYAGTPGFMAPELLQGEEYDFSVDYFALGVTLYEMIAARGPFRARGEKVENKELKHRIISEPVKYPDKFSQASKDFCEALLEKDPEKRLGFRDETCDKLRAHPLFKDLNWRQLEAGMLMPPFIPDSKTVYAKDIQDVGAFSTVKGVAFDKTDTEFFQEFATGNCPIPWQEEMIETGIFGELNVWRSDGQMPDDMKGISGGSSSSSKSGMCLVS

[5] = target: T3, kinases (KINOMEscan panel) (Homo sapiens, UniProt Q9NWZ3); conditions: IRAK4; Published KINOMEscan; ref original PKIS2 published data; cited from earlier work
T3 sequence (Q9NWZ3 1-460): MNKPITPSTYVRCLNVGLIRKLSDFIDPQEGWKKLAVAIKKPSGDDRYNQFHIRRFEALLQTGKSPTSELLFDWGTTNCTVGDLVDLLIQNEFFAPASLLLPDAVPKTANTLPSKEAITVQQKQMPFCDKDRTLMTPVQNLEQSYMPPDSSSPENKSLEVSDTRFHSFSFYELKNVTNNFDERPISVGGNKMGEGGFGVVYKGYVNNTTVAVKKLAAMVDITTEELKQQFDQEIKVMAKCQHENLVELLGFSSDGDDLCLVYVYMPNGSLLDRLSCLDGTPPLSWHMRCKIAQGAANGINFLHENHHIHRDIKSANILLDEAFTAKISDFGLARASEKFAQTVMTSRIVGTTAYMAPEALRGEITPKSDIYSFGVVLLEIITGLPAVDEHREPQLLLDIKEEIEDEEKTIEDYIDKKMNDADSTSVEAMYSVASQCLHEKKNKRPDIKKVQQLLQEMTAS

[6] = target: kinases (KINOMEscan panel) (Homo sapiens, UniProt P49761); conditions: CLK3; Published KINOMEscan; ref original PKIS2 published data; cited from earlier work
[7] = target: T4, kinases (KINOMEscan panel) (Homo sapiens, UniProt Q8NG66); conditions: Published KINOMEscan; ref original PKIS2 published data; cited from earlier work
T4 sequence (Q8NG66 1-645): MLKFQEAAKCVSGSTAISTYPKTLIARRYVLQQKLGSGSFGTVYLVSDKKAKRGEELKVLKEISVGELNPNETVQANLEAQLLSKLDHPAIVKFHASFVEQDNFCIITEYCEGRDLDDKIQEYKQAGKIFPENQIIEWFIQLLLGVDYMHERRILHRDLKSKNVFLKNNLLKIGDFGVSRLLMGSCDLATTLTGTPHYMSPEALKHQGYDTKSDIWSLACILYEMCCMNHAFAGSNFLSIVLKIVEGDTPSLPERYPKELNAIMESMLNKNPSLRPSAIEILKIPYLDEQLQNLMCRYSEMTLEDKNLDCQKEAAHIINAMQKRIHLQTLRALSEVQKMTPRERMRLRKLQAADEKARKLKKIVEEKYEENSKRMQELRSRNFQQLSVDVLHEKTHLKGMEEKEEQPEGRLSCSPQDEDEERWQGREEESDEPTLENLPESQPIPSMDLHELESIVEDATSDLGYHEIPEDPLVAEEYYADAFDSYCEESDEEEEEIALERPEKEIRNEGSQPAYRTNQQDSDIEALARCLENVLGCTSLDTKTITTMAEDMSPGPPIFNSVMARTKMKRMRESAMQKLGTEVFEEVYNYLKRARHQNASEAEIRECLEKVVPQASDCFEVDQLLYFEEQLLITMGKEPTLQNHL

Sequence of kinases (KINOMEscan panel) (Homo sapiens, UniProt P49759) (P49759 whole entry): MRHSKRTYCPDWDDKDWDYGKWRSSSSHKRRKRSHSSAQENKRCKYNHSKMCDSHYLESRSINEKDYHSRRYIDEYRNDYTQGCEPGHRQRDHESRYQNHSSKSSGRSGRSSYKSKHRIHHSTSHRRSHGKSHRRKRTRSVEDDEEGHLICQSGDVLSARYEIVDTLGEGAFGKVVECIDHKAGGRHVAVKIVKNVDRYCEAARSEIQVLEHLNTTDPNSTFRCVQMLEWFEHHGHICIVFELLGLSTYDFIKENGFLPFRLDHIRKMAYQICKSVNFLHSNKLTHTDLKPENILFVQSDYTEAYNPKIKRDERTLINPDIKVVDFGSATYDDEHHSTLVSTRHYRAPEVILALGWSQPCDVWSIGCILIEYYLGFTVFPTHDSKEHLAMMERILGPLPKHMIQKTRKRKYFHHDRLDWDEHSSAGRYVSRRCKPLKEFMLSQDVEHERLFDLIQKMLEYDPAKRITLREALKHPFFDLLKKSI
Sequence of kinases (KINOMEscan panel) (Homo sapiens, UniProt Q15375) (Q15375 28-998): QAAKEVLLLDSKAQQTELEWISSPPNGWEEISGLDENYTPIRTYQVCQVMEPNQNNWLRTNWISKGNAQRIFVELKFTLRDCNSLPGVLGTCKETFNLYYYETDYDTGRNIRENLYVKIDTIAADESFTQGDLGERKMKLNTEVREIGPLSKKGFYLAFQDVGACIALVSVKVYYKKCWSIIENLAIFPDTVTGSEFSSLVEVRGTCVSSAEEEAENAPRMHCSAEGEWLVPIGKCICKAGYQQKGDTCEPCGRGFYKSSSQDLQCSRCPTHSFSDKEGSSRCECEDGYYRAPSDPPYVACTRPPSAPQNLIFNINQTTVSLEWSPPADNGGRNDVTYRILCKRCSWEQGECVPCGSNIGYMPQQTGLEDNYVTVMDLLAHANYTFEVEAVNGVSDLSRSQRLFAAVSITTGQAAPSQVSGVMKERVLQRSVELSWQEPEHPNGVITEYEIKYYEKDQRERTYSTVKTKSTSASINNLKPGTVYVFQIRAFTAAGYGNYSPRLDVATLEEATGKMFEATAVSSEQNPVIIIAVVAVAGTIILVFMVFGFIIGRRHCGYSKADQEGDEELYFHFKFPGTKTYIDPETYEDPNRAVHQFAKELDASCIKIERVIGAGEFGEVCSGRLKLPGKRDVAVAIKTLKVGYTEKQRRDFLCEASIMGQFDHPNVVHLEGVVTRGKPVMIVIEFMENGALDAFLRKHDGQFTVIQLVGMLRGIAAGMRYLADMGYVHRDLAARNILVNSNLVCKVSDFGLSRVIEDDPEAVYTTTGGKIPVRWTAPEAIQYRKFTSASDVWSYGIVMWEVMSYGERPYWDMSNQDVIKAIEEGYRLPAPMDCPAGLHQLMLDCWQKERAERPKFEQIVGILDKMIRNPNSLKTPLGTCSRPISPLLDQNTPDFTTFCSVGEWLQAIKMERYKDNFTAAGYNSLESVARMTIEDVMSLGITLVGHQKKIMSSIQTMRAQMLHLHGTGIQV
Sequence of kinases (KINOMEscan panel) (Homo sapiens, UniProt P49761) (P49761 whole entry): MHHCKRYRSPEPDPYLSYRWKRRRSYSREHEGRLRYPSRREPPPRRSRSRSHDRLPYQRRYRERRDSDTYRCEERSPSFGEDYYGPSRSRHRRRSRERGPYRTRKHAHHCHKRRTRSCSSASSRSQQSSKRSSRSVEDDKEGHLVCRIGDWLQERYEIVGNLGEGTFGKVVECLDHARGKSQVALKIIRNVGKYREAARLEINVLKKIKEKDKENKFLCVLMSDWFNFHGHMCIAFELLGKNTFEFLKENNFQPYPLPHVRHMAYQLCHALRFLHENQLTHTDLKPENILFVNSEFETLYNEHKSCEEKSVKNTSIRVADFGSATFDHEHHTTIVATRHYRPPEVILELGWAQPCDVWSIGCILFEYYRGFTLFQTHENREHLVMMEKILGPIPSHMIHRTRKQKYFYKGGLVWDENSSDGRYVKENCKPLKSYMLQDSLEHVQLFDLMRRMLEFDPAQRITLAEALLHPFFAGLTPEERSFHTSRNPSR

Question: For `Cc1cccc(-c2nc(Nc3ccncc3)c3ccccc3n2)n1` [NK215], which “KINOMEscan MAPKAPK5” value [1] is on record?
Answer: 0

Question: And the “KINOMEscan EPHA7” value [2]?
Answer: 0

Question: What about the “KINOMEscan CLK1” value [3] of the same compound?
Answer: 10

Question: And the “KINOMEscan GRK1” value [4]?
Answer: 0

Question: And the “KINOMEscan IRAK4” value [5]?
Answer: 0

Question: What about the “KINOMEscan CLK3” value [6] of the same compound?
Answer: 31

Question: What about the “KINOMEscan NEK11” value [7] of the same compound?
Answer: 0
